The target of test [1] is GDP-bound NRAS wild-type protein (Homo sapiens, UniProt P01111). Kind of test: Binding to NRAS by surface plasmon resonance (SPR), Single Cycle Kinetics. The note with it: SPR, GDP-bound NRAS wild-type protein vs GDP-bound KRAS wild-type protein. On the technique in general: SPR reads the build-up and loss of mass on a sensor chip optically.
Test [2] deals with GDP-bound HRAS wild-type protein (Homo sapiens, UniProt P01112). Kind of test: Binding to HRAS by surface plasmon resonance (SPR), Single Cycle Kinetics. The following applies: SPR, GDP-bound HRAS wild-type protein vs GDP-bound KRAS wild-type protein.
In test [3] the target is GDP-bound KRAS wild-type protein (Homo sapiens, UniProt P01116). Kind of test: Binding to KRAS by surface plasmon resonance (SPR), Single Cycle Kinetics. The note with it: GDP-bound KRAS wild-type protein, read-out: KRAS KD.
The mark [4] stands for this setting: SPR Single Cycle Kinetics, 1:1 binding model.

Read-outs that look alike come from different tables or passages of the source. Where a SMILES comes first, the peptide text is derived from it. Bridges are numbered along the chain shown (N, C = ends). [ ]: non-standard residue; d: D form. The star is where a group is joined. hPhe(3-Cl-4-CF3) = N[C@@H](CCc1ccc(C(F)(F)F)c(Cl)c1)C(=O)O; NPrPhe(4-CF3) = CCCN[C@@H](Cc1ccc(C(F)(F)F)cc1)C(=O)O; NMePhe(4-Me) = CN[C@@H](Cc1ccc(C)cc1)C(=O)O; NMeGly(cPent) = CN[C@H](C(=O)O)C1CCCC1; Pro(4,4-F2) = O=C(O)[C@@H]1CC(F)(F)CN1; NMeGly(cBu) = CN[C@H](C(=O)O)C1CCC1; NMeD = CN[C@@H](CC(=O)O)C(=O)O; NMeL = CN[C@@H](CC(C)C)C(=O)O; Morpholide = C1CN(*)CCO1; NMeA = CN[C@@H](C)C(=O)O; Ac5c = NC1(C(=O)O)CCCC1; Aze = O=C(O)[C@@H]1CCN1; NBuGly = CCCCNCC(=O)O; NEtG = CCNCC(=O)O; Sar = CNCC(=O)O

Sequence of GDP-bound NRAS wild-type protein (P01111 whole entry): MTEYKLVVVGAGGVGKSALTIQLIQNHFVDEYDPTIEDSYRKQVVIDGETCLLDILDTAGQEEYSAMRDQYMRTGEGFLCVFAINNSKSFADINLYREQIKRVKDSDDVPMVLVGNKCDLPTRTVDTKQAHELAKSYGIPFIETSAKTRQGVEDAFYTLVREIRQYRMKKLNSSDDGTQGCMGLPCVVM
Sequence of GDP-bound HRAS wild-type protein (P01112 whole entry): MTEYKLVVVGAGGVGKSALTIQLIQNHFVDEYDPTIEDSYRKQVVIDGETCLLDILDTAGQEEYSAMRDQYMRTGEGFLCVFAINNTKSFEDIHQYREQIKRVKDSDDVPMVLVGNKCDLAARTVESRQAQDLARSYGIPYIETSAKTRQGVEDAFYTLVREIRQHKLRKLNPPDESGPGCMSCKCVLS
Sequence of GDP-bound KRAS wild-type protein (P01116 whole entry): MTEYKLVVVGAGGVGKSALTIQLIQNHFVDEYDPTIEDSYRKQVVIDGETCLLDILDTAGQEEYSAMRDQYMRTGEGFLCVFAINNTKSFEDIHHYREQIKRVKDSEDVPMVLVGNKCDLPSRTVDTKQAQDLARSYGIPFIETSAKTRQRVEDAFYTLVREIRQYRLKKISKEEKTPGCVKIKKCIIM

The term Kd denotes a measure of binding affinity in units of concentration. Regarding `CC[C@H](C)[C@@H]1NC(=O)[C@H](C2CC2)N(C)C(=O)C[C@@H](C(=O)N(C)CC)N(C)C(=O)[C@H](C2CCCC2)N(C)C(=O)C2(CCC2)NC(=O)[C@@H]2C[C@H](C)CN2C(=O)[C@H](CCc2cc(F)c(C(F)(F)F)c(F)c2)NC(=O)CN(C)C(=O)[C@H](Cc2ccc(C(F)(F)F)cc2)N2CC/C=C\C[C@@H](C2=O)N(C)C(=O)CN(C)C1=O` [PP2080], the “NRAS/KRAS (ratio of KD value for NRAS to KD value for KRAS)” value in test [1] is “A (a compound having 10 or more and less than 20 is denoted as A)”. Besides, the “HRAS/KRAS (ratio of KD value for HRAS to KD value for KRAS)” value in test [2] was “A (a compound having 10 or more and less than 20 is denoted as A)”. In addition, the Kd in test [3] (SPR, Single Cycle Kinetics) came out at 93 pM.

Take `CCCCN1CC(=O)N(C)[C@@H](Cc2ccc(C)cc2)C(=O)N(C)CC(=O)N[C@@H](CCc2ccc(C(F)(F)F)c(Cl)c2)C(=O)N2CCC[C@H]2C(=O)NC2(CCCC2)C(=O)N(C)[C@@H](C2CCCC2)C(=O)N(C)[C@H](C(=O)N2CCOCC2)CC(=O)N(C)[C@@H](CC(C)C)C(=O)N[C@@H]([C@@H](C)CC)C(=O)N(C)CC1=O` [PP0021] ([NMeL]I[Sar][NBuGly][NMePhe(4-Me)][Sar][hPhe(3-Cl-4-CF3)]P[Ac5c][NMeGly(cPent)][NMeD]-Morpholide; lactam N-11): the “NRAS/KRAS (ratio of KD value for NRAS to KD value for KRAS)” value in test [1] was “C (A compound having a KD ratio of 0.1 or more and less than 3 is denoted as C)”. Further, in test [2], the “HRAS/KRAS (ratio of KD value for HRAS to KD value for KRAS)” value is “C (A compound having a KD ratio of 0.1 or more and less than 3 is denoted as C)”. In test [3] (setting [4]), the equilibrium dissociation constant (Kd) turned out to be 650 pM.

As to `CCCN1C(=O)[C@@H]2CCN2C(=O)[C@H](C)N(C)C(=O)[C@H]([C@@H](C)CC)NC(=O)[C@H](C2CCC2)N(C)C(=O)C[C@@H](C(=O)N2CCOCC2)N(C)C(=O)[C@H](C2CCCC2)N(C)C(=O)C2(CCCC2)NC(=O)[C@@H]2CCCN2C(=O)[C@H](CCc2ccc(C(F)(F)F)c(Cl)c2)NC(=O)CN(C)C(=O)[C@@H]1Cc1ccc(C(F)(F)F)cc1` [PP0192] ([NMeGly(cBu)]I[NMeA][Aze][NPrPhe(4-CF3)][Sar][hPhe(3-Cl-4-CF3)]P[Ac5c][NMeGly(cPent)][NMeD]-Morpholide; lactam N-11), in test [1], the “NRAS/KRAS (ratio of KD value for NRAS to KD value for KRAS)” value was “C (A compound having a KD ratio of 0.1 or more and less than 3 is denoted as C)”. In test [2], the “HRAS/KRAS (ratio of KD value for HRAS to KD value for KRAS)” value is “B (a compound having 3 or more and less than 10 is denoted as B)”. In addition, the Kd in test [3] (setting [4]) was 190 pM.

As to `CCCN1C(=O)CN(C)C(=O)CN(CC)C(=O)[C@H]([C@@H](C)CC)NC(=O)[C@H](CC(C)C)N(C)C(=O)C[C@@H](C(=O)N2CCOCC2)NC(=O)[C@H](C2CCCC2)N(C)C(=O)C2(CCCC2)NC(=O)[C@@H]2CC(F)(F)CN2C(=O)[C@H](CCc2ccc(C(F)(F)F)c(Cl)c2)NC(=O)CN(C)C(=O)[C@@H]1Cc1ccc(C(F)(F)F)cc1` [PP0333] ([NMeL]I[NEtG][Sar][NPrPhe(4-CF3)][Sar][hPhe(3-Cl-4-CF3)][Pro(4,4-F2)][Ac5c][NMeGly(cPent)]D-Morpholide; lactam N-11), in test [1], the “NRAS/KRAS (ratio of KD value for NRAS to KD value for KRAS)” value was “B (a compound having 3 or more and less than 10 is denoted as B)”. Also, the “HRAS/KRAS (ratio of KD value for HRAS to KD value for KRAS)” value in test [2] was “C (A compound having a KD ratio of 0.1 or more and less than 3 is denoted as C)”. In addition, the Kd in test [3] (setting [4]) was found to be 2400 pM.

For `CC[C@H](C)[C@@H]1NC(=O)[C@H](CC(C)C)N(C)C(=O)C[C@@H](C(=O)N2CCOCC2)N(C)C(=O)[C@H](C2CCCC2)N(C)C(=O)C2(CC(F)(F)C2)NC(=O)[C@@H]2CCCN2C(=O)[C@H](CCc2cc(F)c(C(F)(F)F)c(F)c2)NC(=O)CN(C)C(=O)[C@H](Cc2ccc(C(F)(F)F)cc2)N2CCCC[C@@H](C2=O)N(C)C(=O)CN(C)C1=O` [PP0562], the “NRAS/KRAS (ratio of KD value with respect to NRAS to KD value with respect to KRAS)” value in test [1] was “B (a compound having 3 or more and less than 10 is denoted as B)”. Also, the “HRAS/KRAS (ratio of KD value with respect to HRAS to KD value with respect to KRAS)” value in test [2] is “B (a compound having 3 or more and less than 10 is denoted as B)”. Also, the Kd in test [3] (setting [4]) was found to be 40 pM.

The values above are taken from US20240158446A1, “CYCLIC COMPOUND HAVING SELECTIVE INHIBITORY ACTION ON KRAS OVER HRAS AND NRAS” (CHUGAI SEIYAKU KABUSHIKI KAISHA, priority 2021, published 2024).
